Measured values published in patent US20130225603A1, “MDM2 INHIBITORS FOR TREATMENT OF OCULAR CONDITIONS” (SERRATA LLC, priority 2010, published 2013).
“Also recorded” adds a separate entry of the source.

How the values were obtained:
p53 [1] = assay: p53 expression in HRMECs; assay type: cell-based, human; conditions: racemic Nutlin-3, 10% FBS
Experimental: (§1) HUVECs and HUVSMCs were incubated at 2×10^6 in X-VIVO media and HRMECs in EBM with 10% FBS under various conditions as reported in the results. Western blot extracts were prepared by lysing cells attached cells in cold RIPA buffer in the presence of protease inhibitors for HUVEC and HUVSMC and passive lysis buffer (Promega, Madison, Wis.) for HRMEC. After sonication and centrifugation to remove cell debris, the protein yield was quantified using the BCA protein assay kit (Pierce Biotechnology Inc., Rockford, Ill.). Normalized cell lysates were then mixed with sample buffer containing 2-mercaptoethanol and SDS and heated for 5 minutes at 95° C. Equal amounts of protein were run on SDS-polyacrylamide gels before being transferred to PVDF membranes. Binding of the primary antibody against p53, p21, and beta actin was detected with enhanced chemiluminescence reagent (Amersham) using HRP-conjugated secondary antibody (1:10,000, Amersham).

[2] = test system: retinal vasculature of mouse pups; assay: In vivo retinal vascular development assay (subcutaneous and periocular injection)
Experimental: A technique described by Strombland et al. was modified to study the effects of Nutlin-3 on in vivo vascular development (see Stromblad S, Fotedar A, Brickner H, et al., J. Biol. Chem. 277:13371-13374 (2002), which is incorporated herein by reference. Briefly, racemic Nutlin was administered by subcutaneous injection in the nape of the neck or in the periocular area of each eye to wild type 129 S1-VIMJ (Jackson Laboratories, Bar Harbor, Me.) mouse pups within 12 hours of birth. The mice received a total of 4 (periocular experiments) or 5 (subcutaneous neck experiments) injections of either racemic Nutlin or 100% DMSO. The first injection of Nutlin was administered at a dose of 40 mg/kg while the rest were given at a dose of 80 mg/kg for experiments involving injections in the nape of the neck. A dose of 80 mg/kg was administered for all injections in the periocular series of experiments. The pups were euthanized on postnatal day 3 and the eyes were enucleated after the fused eyelids incised.
The eyes were then fixed in 4% paraformaldeheyde overnight and washed three times with PBS. After removing the cornea and lens, the hyaloidal (primitive) vasculature was removed and four radial incisions were made in the eyecup to flatten the retina/choroid/sclera complex. The choroid and sclera were removed from the retina and cut at the optic nerve. After the retinal wholemount was blocked with 5% bovine serum albumin, 5% normal donkey serum, and 0.5% TritonX-100 for 3 hours or overnight, the wholemount was incubated with a 1:200 dilution of GS-IB4 lectin overnight and mounted with Vectashield (Vector Laboratories). For double staining wholemount experiments, retinas were incubated with primary antibody overnight at 4° C., underwent 6 one hour washes with PBS-T, followed by incubation with secondary antibody overnight at 4° C., followed by 6 one hour washes with PBS-T prior to being cover-slipped with Vectashield. Using a fluorescent biomicroscope (Carl Zeiss Discovery V12, Thornwood, N.Y.) hyaloidal vessels, vessels connected to the optic nerve, on the surface of the retina, were dissected in a masked manner. A confocal laser (Carl Zeiss LSM 510 meta) was used to obtain images of the retinal vasculature.
We captured images with the same laser power, objective, gain, pinhole, and amplifier offset. The resultant images were masked to the analyst assessing the images. All analyzed images were captured with a 5× objective and then exported to Adobe Photoshop 7.0 (San Jose, Calif.) as high-resolution .tiff images. Using the Magic Wand tool and histogram function, the analyst recorded the number of pixels that best represented the retinal vasculature and omitted the residual hyaloidal (fetal) vasculature that was unable to be removed during dissection. Blood vessels assessed to be residual hyaloid were found at a different focal plane than retinal blood vessels and were usually connected to the optic nerve.

HRMECs [3] = assay: Apoptosis of HRMECs in serum (TUNEL); assay type: cell-based, human; conditions: HRMECs in serum (10% FBS)
Experimental: (§2) HUVECs were plated on collagen coated plastic bottom culture dishes (MatTek Corp., Ashland, Mass.) overnight. […] HRMEC were treated with 15 μM of racemic Nutlin for 24 hours in 10% FBS. The TUNEL assay was performed following instructions provided with the kit (Roche Applied Science, Indianapolis, Ind.). Representative images of the HRMEC experiment were provided with a 4× objective using an Olympus AX70 fluorescence microscope following the addition of a nuclear counter stain. For HUVEC experiments, 5 representative fields with a 20× objective using a Zeiss confocal microscope were captured. 2 masked observers performed cell counts. For wholemount retina staining, TUNEL solution was incubated for 48 hours diluted in PBS plus 0.3% Triton-X 100 after lectin staining.

HRMECs [4] = assay: Cell viability/proliferation, HRMECs in serum; assay type: cell-based, human; conditions: racemic Nutlin-3
Experimental: (§3) Cells were seeded at a concentration of 2×10^5 for HUVECs and 2×10^4 for HUVSMCs in serum free media on 12 well plates after detachment. The cells were allowed to adhere overnight in growth media, and then incubated with X-VIVO media (Cambrex) with or without cytokines (10 ng/ml FGF-2 and 2 μg/ml heparin or 10 ng/ml VEGF-A). For HRMEC experiments, cells were seeded at a concentration of 1×10^5 and allowed to settle overnight in 6-cm plates coated with attachment factor (Cell Signaling, Danvers, Mass.). The next day, fresh 10% FBS and EBM medium was added. […] After incubation, HUVEC were detached with collagenase/EDTA and HUVSMC and HRMEC were detached with trypsin/EDTA. The cells were manually counted with a Hemacytometer (Hausser Scientific, Horsham, Pa.) using Trypan blue exclusion.

HUVECs [5] = assay: Apoptosis of endothelial cells (HUVECs) in serum enriched media; assay type: cell-based, human
[6] = test system: retinal vessels of adult mice; assay: In vivo adult retinal vessel assay (intravitreal injection); set-up: species or system mouse; conditions: five days after injection
Experimental: Adult, three month old, 129 and C57/BL6/129S mice were anesthetized with Avertin and also given a drop of topical proparacaine 1% for local anesthesia. Using a stereo microscope, a glass capillary pipette was used to inject 1 μL of either vehicle or racemic Nutlin-3 into the vitreous of cavity of both eyes of each animal. Mice were then euthanized five days after injection. All procedures involving mice were approved and monitored by the Weill Medical College of Cornell University and Hospital for Special Surgery Animal Care and Use Committees. The eyes were then fixed in 4% paraformaldeheyde overnight and washed three times with PBS. After removing the cornea and lens, the hyaloidal (primitive) vasculature was removed and four radial incisions were made in the eyecup to flatten the retina/choroid/sclera complex. The choroid and sclera were removed from the retina and cut at the optic nerve. After the retinal wholemount was blocked with 5% bovine serum albumin, 5% normal donkey serum, and 0.5% TritonX-100 for 3 hours or overnight, the wholemount was incubated with a 1:200 dilution of GS-IB4 lectin overnight and mounted with Vectashield (Vector Laboratories). […]

p53 [7] = assay: p53/p21 immunofluorescence and Western blot in HUVSMCs; assay type: cell-based, human; conditions: HUVSMC, 7.5 μM, within 8 hours
Experimental: as §1

HUVSMCs [8] = assay: Cell proliferation assay, HUVSMCs (manual count, Trypan blue exclusion); assay type: cell-based, human
Experimental: as §3

HUVSMCs [9] = assay: Flow cytometric analysis for apoptosis (annexin V/propidium iodide), HUVSMCs; assay type: cell-based, human; conditions: HUVSMC, 7.5 μM, 36 hours, compared to control
Source text: (§4) HUVECs were detached with collagenase/EDTA and HUVSMCs were detached with trypsin/EDTA. The cells were then washed twice with PBS, and stained with propidium iodide and annexin V-FITC (Annexin V-FITC apoptosis detection kit I, Beckton Dickinson) according to the manufacturer's instructions.

HUVECs [10] = assay: Flow cytometric analysis for apoptosis (annexin V/propidium iodide), HUVECs; assay type: cell-based, human; conditions: HUVEC, 7.5 μM, 24 hours, compared to the control
Source text: as §4

HUVECs [11] = assay: Cell proliferation assay, HUVECs (manual count, Trypan blue exclusion); assay type: cell-based, human; conditions: for HUVEC proliferation: 36 hours
Experimental: as §3
First, we performed a dose response curve on unstimulated and stimulated serum free HUVECs. […] HUVECs were either unchallenged or challenged with VEGF-A or FGF-2 during the incubation. […] Cell viability was measured at 12, 24, and 36 hours after incubation.

HUVECs [12] = assay: Matrigel tube assay for in vitro angiogenesis; assay type: cell-based, human; conditions: FGF-2, 24 hours
Experimental: Matrigel matrix (Becton Dickinson, San Jose, Calif.) was kept on ice for 24 hours. Then, 200 ill of Matrigel were added to each well of a 24 well culture plate. After hardening the Matrigel at 37° C. for 30 minutes, gels were overlaid with 500 μl of X-VIVO medium containing 3×10^4 HUVECs. […] The effect of Nutlin was inspected 24 hours under an inverted light microscope. Nine overlapping images with a 10× objective were taken of each well to perform tubule length quantification. Adobe Photoshop 7.0 (Adobe Systems Inc., San Jose, Calif.) was used to make a montage image of each well. Each montage image was then imported into LSM Image Browser v3.5 (Carl Zeiss Inc., Thornwood, N.Y.) to measure tubule length. Tubule length was then standardized to the overall pixel area examined. A masked observer assessed all measurements.

p53 [13] = conditions: HUVEC, 8 hours, compared to Nutlin-3B or control
Experimental: as §1

HUVECs [14] = assay: TUNEL assay for apoptosis, HUVECs; assay type: cell-based, human; conditions: serum free HUVEC, 7.5 μM, 24 hours, compared to control
Experimental: as §2

[15] = test system: p53 siRNA infected HUVECs; assay: Cell viability of p53 siRNA infected HUVECs; assay type: cell-based, human; conditions: 7.5 μM, FGF-2, 48 hours; p53 siRNA vs control siRNA
Experimental: Passage 3 HUVECs were grown to confluence. pRETRO-SUPER and pRETRO-SUPER-p53 viruses were produced by GP2 cells (Clontech, Mountain View, Calif.). Supernatant was filtered and then added to HUVECs in the presence of […] polybrene followed by 1 μg/ml of Puromycin selection for 7 days.
To determine if the p53 pathway is necessary for the observed Nutlin-3 mediated cellular effects, we infected HUVEC with retrovirus expressing either control short interfering RNA (siRNA) or p53 siRNA. […] (A and B) HUVECs were infected with a lentiviral vector expressing p53 siRNA or control siRNA for 48 hours and then underwent Puromycin selection for 72 hours.

## COc1ccc(C2=NC(c3ccc(Cl)cc3)C(c3ccc(Cl)cc3)N2C(=O)N2CCNC(=O)C2)c(OC(C)C)c1 (racemic) [Nutlin-3, (±)-4-[4,5-bis(4-chlorophenyl)-2-(2-isopropoxy-4-methoxy-phenyl)-4,5-dihydro-imidazole-1-carbonyl]-piperazin-2-one]
p53 [1]
  p53 expression in HRMECs: upregulation of p53
[2]; neonatal mice, periocular injection, FIG. 6E
  retinal vasculature compared to sham injected mice (images): less retinal vasculature
[2]; neonatal mice, periorbital (periocular) injection, 80 mg/kg, postnatal day 3, p<0.01
  fewer blood vessels compared to the sham-injected mice: 43.8%
[2]; neonatal mice, retinal wholemounts
  calibre of retinal vessels affected: loss of smaller caliber vessels; also recorded: preferentially targeted capillaries and smaller blood vessels
[2]; neonatal mice, subcutaneous injection in the nape of the neck, 40 then 80 mg/kg, postnatal day 3, p<0.05
  reduction in the amount of retinal vessels compared to sham injected mice: 27.4%
[2]; neonatal mice, subcutaneous injection in the nape of the neck, FIG. 6B
  retinal vasculature compared to sham injected mice (images): abrogated
[2]; neonatal mouse retinal wholemount, GS-IB4 lectin co-staining, rare event
  TUNEL positive cells in the retinal vasculature: TUNEL positive cells that co-localized to the retinal endothelium
HRMECs [3]
  apoptosis in HRMECs: induces apoptosis
HRMECs [4]
  HRMEC cell viability: sufficient to inhibit cell viability
HUVECs [5]
  apoptosis of endothelial cells: do not undergo apoptosis
[6]
  thickness of the neuronal cell layers of the neurosensory retina (hematoxylin and eosin): did not observe any gross changes in the thickness of the neuronal cell layers
[6]; p>0.05
  retinal vasculature of adult mice compared to control: no reduction of the retinal vasculature; also recorded: no difference

## COc1ccc(C2=N[C@@H](c3ccc(Cl)cc3)[C@@H](c3ccc(Cl)cc3)N2C(=O)N2CCNC(=O)C2)c(OC(C)C)c1 [Nutlin-3A]
p53 [7]
  p53 response (immunofluorescence and Western blot): initiated a p53 response; also recorded: increased p53 expression
HUVSMCs [8]; 7.5 μM, serum free HUVSMCs activated with FGF-2 or 5% FBS, at 48 to 72 hours
  HUVSMC proliferation, time course: growth inhibited
HUVSMCs [8]; 7.5, 15, 30 μM, serum free, unchallenged HUVSMCs, at 36 hours, p>0.05
  HUVSMC early response to increasing concentrations: did not find an early response
HUVSMCs [9]
  annexin V and propidium iodide staining (apoptosis): no significant difference
HUVECs [10]
  double positive annexin V and propidium iodide cells (late apoptosis): significantly more double positive annexin V and propidium iodide cells
HUVECs [11]; 7.5 μM, unstimulated, serum free HUVEC, by 36 hours
  HUVEC growth / cell viability, time course: near complete cell death
HUVECs [11]; 1, 5 or 10 μM, serum free HUVECs unchallenged or challenged with VEGF-A or FGF-2
  HUVEC proliferation: inhibit HUVEC proliferation at all tested doses with greater activity at higher concentrations
HUVECs [12]; 5 and 7.5 μM
  dose dependence of capillary tube formation inhibition: dose dependent
HUVECs [12]; HUVEC on Matrigel, compared to control
  reduction in capillary tube formation: 93%
p53 [13]
  p53 and p21 protein (Western blot): increased p53 protein, and its downstream target p21
HUVECs [14]
  TUNEL positive cells (apoptosis): significantly more cells undergoing apoptosis
[15]
  cell viability of p53 siRNA infected HUVECs: p53 siRNA infected cells had become resistant

## COc1ccc(C2=N[C@H](c3ccc(Cl)cc3)[C@H](c3ccc(Cl)cc3)N2C(=O)N2CCNC(=O)C2)c(OC(C)C)c1 [Nutlin-3B]
HUVECs [11]; 10 μM
  HUVEC proliferation: little effect on HUVEC proliferation
